# Data published in patent US10836743B2, “Fluorinated cyclopropylamine compound, preparation method therefor, pharmaceutical composition thereof, and uses thereof” (SHANGHAI INSTITUTE OF MATERIA MEDICA, CHINESE ACADEMY OF …, priority 2016, dated 2020).
# Several values for one entry are separate records, joined by “and”; a condition that tells them apart may be missing. Equal entries are not always repeated. Where two headings read alike, the source gives them in different places.
# How the values were obtained:
# human recombinant MAOB = human recombinant MAOB (Homo sapiens (Human), UniProt P27338); test: MAOB in vitro activity (MAO-Glo); format: biochemical
# in vivo = conditions: mouse
# Human recombinant MAOA = Human recombinant MAOA (Homo sapiens (Human), UniProt P21397); test: MAOA in vitro activity (MAO-Glo); format: biochemical
# [1] = tested on: human acute myeloid leukemia MV4-11 subcutaneous transplantation tumor; test: Growth of subcutaneous transplantation tumor in nude mice; format: in vivo, Balb/c nude mice; conditions: 10 mg/kg qd p.o., 21 days
# Excerpt: Example 3 Evaluation of Chronic Efficacy at the Animal Level:
# Inhibitory Effect of LSD1 Inhibitor on the Growth of Subcutaneous Transplantation Tumor in Nude Mice of Human Acute Myeloid Leukemia MV4-11 […]
# Animals: Balb/c nude mice, female, weighing 17-20 g, were purchased from Beijing Weitong Lihua Experimental Animal Technology Co., Ltd., and the number of animals per group was 5.
# Cell line: MV4-11 cell line was used to inoculate at the right axilla of the nude mice, and the inoculation amount was 5×10^6/animal. The experiment can start after the transplanted tumor was formed.
# For female nude mice weighing 20±3 g, MV4-11 cells were inoculated into the right axilla of nude mice at a inoculation amount of 5×10^6/mouse. After tumor formation, the diameter of the transplanted tumor was measured with a vernier caliper. And after the tumor has grown into 100-300 mm^3, the animals were divided into model control group and drug-administered group according to body weight and tumor volume, with 5 mouse in each group. The model control group was given an equal amount of blank solvent. Oral gavage was used daily after grouping for 21 days.
# Note: Wc: tumor weight of control group, WT: tumor weight of treatment group.
# Data processing: Data were expressed as mean±standard deviation, and statistical methods were T-TEST two-tailed analysis for significant analysis.
# Human recombinant LSD1 = Human recombinant LSD1 (Homo sapiens (Human), UniProt O60341)
# Excerpt: LSD1 In Vitro Activity Assay
# Instrument: microplate reader Envision™ (PerkinElmer, USA).
# leukemia cells MV4-11 = test: Inhibitory activity on growth by MTS method; format: cell-based; conditions: Homo sapiens
# Procedure: 2. Test of Inhibitory Activities of Compound on Growth by MTS Method Experimental Principle:
# MTS assay detects the inhibitory effect of the tested compound to the growth of leukemia cells MV (4:11). The principle is that succinate dehydrogenase in mitochondria in living cells can reduce exogenous thiazole blue to insoluble blue crystal Formazan.
# • 1. MV4-11 cells in logarithmic growth phase were accurately counted at 16000 cells/mL, and the diluted cell solution was added to 96-well plates at 90 μL per well. • 2. Fresh medium was taken and sequentially added to a 96-well plate with cell fluid at 90 μL per well. • 3. […] 2 μL of the diluted compound was respectively added to a 96-well plate containing 98 μL of blank medium, and for DMSO group, 98 μL of blank medium was added into 2 μL of DMSO, and mixed for further use. • 5. The compound mixed with the medium was separately added to a 96-well plate in which cells were plated, in triplicate, 20 μL per well, and were mixed. The blank group was added with 200 μL of IMDM medium, and the DMSO group was added with 180 μL of the cell-containing medium in DMSO diluted with the medium. • 6. […]
# [2] = tested on: CD86 expression in leukemia cell line MV4-11; test: CD86 gene expression activation test (quantitative real-time PCR); format: cell-based, human; conditions: CD86 activation fold, 24 h
# Procedure: CD86 Gene Expression Activation Test: Experimental Principle:
# Quantitative Real-time PCR is a method for measuring the total amount of the product after each polymerase chain reaction (PCR) cycle by using fluorescent chemicals in a DNA amplification reaction. Quantitative analysis of a specific DNA sequence in a sample to be tested was conducted by internal reference method or external reference method. There is a linear relationship between the Ct value of the template and the initial copy number of the template during the exponential phase of PCR amplification, which serves as a basis for quantification.
# • 1. 350 w/mL MV4-11 cells were accurately counted in a 12-well plate at 900 μL per well. • 2. […] The sample was transferred to a 1.5 mL EP tube, centrifuged at 2000 rpm for 3 min, and the supernatant was removed. […] of trizol was added for lysis and allowed to stand for 3 min. • 4. […] The supernatant was removed, and the EP tube was air-dried in a fume hood. 20-30 μL of RNase inactivated deionized water was added and mixed to measure the RNA concentration. • 8. […] 100 μL of deionized water was added to the EP tube and mixed. • 10. […]
# Sequence of human recombinant MAOB (P27338 whole entry): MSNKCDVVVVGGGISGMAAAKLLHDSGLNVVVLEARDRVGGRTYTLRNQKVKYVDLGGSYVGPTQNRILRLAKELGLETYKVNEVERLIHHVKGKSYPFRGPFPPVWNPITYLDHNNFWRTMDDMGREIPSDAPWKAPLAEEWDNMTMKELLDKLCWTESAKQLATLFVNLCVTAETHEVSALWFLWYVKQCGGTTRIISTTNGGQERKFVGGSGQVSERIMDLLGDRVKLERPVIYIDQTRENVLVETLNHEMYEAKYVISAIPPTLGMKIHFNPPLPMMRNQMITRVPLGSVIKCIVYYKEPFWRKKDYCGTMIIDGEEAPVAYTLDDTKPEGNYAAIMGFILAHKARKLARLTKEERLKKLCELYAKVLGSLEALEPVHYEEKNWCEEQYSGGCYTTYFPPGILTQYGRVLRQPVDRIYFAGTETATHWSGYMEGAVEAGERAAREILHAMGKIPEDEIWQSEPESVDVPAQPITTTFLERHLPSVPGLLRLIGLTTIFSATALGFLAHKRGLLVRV
# Sequence of Human recombinant MAOA (P21397 whole entry): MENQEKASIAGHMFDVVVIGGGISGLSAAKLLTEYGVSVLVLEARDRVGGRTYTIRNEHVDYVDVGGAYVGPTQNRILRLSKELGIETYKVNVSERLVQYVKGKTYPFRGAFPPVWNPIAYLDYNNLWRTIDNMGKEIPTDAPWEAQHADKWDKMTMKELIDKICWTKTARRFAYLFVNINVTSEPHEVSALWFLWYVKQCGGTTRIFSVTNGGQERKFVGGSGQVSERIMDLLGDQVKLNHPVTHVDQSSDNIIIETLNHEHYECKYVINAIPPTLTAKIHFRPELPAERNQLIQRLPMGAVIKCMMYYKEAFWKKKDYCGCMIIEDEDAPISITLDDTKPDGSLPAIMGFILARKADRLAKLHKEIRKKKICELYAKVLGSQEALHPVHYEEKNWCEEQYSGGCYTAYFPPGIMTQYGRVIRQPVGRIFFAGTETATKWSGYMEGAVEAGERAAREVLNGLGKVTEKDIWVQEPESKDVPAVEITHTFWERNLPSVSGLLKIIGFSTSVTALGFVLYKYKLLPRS
structure (smiles),measurement,setting,value
O=C(O)c1ccc(CN2CCC(CN[C@@H]3C[C@H]3c3ccccc3)CC2)cc1 [GSK-2879552],IC50,human recombinant MAOB,> 100 µM
same,AUC(0-inf),in vivo; iv,4420 ng·h/mL
same,AUC(0-t),in vivo; iv,4410 ng·h/mL
same,Cmax,in vivo; iv,7740 ng/mL
same,MRT inf,in vivo; iv,0.96 h
same,Tmax,in vivo; iv,0.083 h
same,Vd,in vivo; iv,2.18 L/kg
same,clearance,in vivo; iv,37.7 mL/min/kg
same,half-life,in vivo; iv,4.36 h
same,AUC(0-inf),in vivo; po,5360 ng·h/mL
same,AUC(0-t),in vivo; po,5350 ng·h/mL
same,Cmax,in vivo; po,9180 ng/mL
same,MRT inf,in vivo; po,1.18 h
same,Tmax,in vivo; po,0.167 h
same,bioavailability,in vivo; po,60.7%
same,half-life,in vivo; po,4.24 h
same,IC50,Human recombinant MAOA,> 100 µM
same,Tumor inhibition rate (%),[1],51.96%
same,Tumor weight (g) mean ± SD,[1],0.55 ± 0.55 g
same,"Tumor weight (g), individual animals 1-5",[1],0.22 g and 1.19 g and 0.00 g and 1.25 g and 0.10 g
same,IC50,Human recombinant LSD1,1.22 ± 0.327 µM
same,IC50,"leukemia cells MV4-11; 72 h, MV4-11, 3 days, read-out: MTS 3 D",> 20 µM
same,IC50,"leukemia cells MV4-11; 240 h, MV4-11, 10 days, read-out: MTS 10 D",1.03 ± 0.36 µM
same,Activation ratio (10 nM),"[2]; MV4-11, 10 nM",1.79 ± 0.37
same,Activation ratio (100 nM),"[2]; MV4-11, 100 nM",9.76 ± 2.23
